Where two headings read alike, the source gives them in different places. *1 amine or outer side, *2 acyl side, *3 side chain or, on linkers, in order; H or OH if unused. Where a SMILES comes first, the peptide text is derived from it. Bridges are numbered along the chain shown (N, C = ends). [ ]: non-standard residue; d: D form. N(4-F-Bzl)Gly = O=C(O)CNCc1ccc(F)cc1; X1 = O=C(CCC[*:2])[*:1]
Legend:
[1] = Trial 000015 Part 2: pharmacokinetics after multiple intranasal administrations; assay type: in vivo, human; settings: for Cmax / Tmax / AUC(0-t) / half-life: female, human, plasma
From the text: The trial was divided into three parts:
Part 2. Ascending multiple i.n. doses.

[2] = test system: early postpartum women; settings: in vivo
Protocol: Healthy women received 5 or 20 μg merotocin i.v. shortly after delivery (Part A) or 20 μg merotocin i.v. when lactation was established (Part B). Milk was expressed by pumping at 15 minutes, 3 hours, 6 hours, 9 hours, 12 hours, 18 hours and 18-24 hours after start of infusion and analysed for merotocin and metabolites.

[3] = in vivo
[4] = test system: healthy women; settings: in vivo;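 on intensity of all TEAEs: adverse events in healthy women given intranasal doses every 3 h over 45 h (16 doses per panel), each panel with 6 active and 2 placebo subjects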;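 on withdrawal due to nausea: adverse events in healthy women given intranasal doses every 3 h over 45 h (16 doses per panel), each panel with 6 active and 2 placebo subjects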
Protocol: The first clinical trial in human, Trial 000015, was a double-blind, placebo-controlled, single dose, within dose panel randomised, sequential dose escalating study. The trial was divided into three parts:
Part 1. Ascending single i.n. doses. There were 7 dose panels with 8 healthy women in each dose panel (6 active, 2 placebo). The doses investigated were 5 μg, 15 μg, 50 μg, 100 μg, 200 μg, 300 μg, and 400 μg.
Seven dose levels were investigated: 5, 15, 50, 100, 200, 300, and 400 μg. Each of the doses were administered as a nasal spray based on one or multiple puffs per nostril.
Part 3. Open-label cross-over single i.n. and single i.v. dose in 6 healthy women. The doses investigated were 20 μg as an i.v. infusion over 25 minutes, and 400 μg as a single i.n. dose.
The intranasal dose was 400 μg (4×140 μl, the same as the highest dose in Part 1), the i.v. dose was 20 μg infused in 2 mL over 25 minutes.

[5] = test system: healthy women;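 on intensity of all TEAEs: adverse events in healthy women given intranasal doses every 3 h over 45 h (16 doses per panel), each panel with 6 active and 2 placebo subjects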;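 on withdrawal due to nausea: adverse events in healthy women given intranasal doses every 3 h over 45 h (16 doses per panel), each panel with 6 active and 2 placebo subjects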
Protocol: Part 2. Ascending multiple i.n. doses. There were 3 dose panels with 8 healthy women in each dose panel (6 active, 2 placebo). The dosing schedule was every 3 hours for 45 hours, i.e. 16 doses in all. The doses investigated were 50 μg, 200 μg, and 400 μg.
Three dose levels were investigated: the first dose was 50 μg, the second dose was 200 μg (intermediate between the first dose and the maximal tolerated dose in Part 1), and the highest dose was 400 μg (the maximal dose in Part 1).

[6] = 16 i.n. administrations over 48 hours

For CC[C@H](C)[C@@H]1NC(=O)[C@H](Cc2ccc(O)cc2)NC(=O)CCCSC[C@@H](C(=O)N(CC(=O)N[C@@H](CC(C)C)C(=O)NCC(N)=O)Cc2ccc(F)cc2)NC(=O)[C@H](CC(N)=O)NC(=O)[C@H](CCC(N)=O)NC1=O [merotocin, Glycinamide, N-(4-mercapto-1-oxobutyl)-L-tyrosyl-L-isoleucyl-Lglutaminyl-L-asparaginyl-L-cysteinyl-N-[(4-fluorophenyl)methyl]glycyl-L-leucyl-, cyclic (1→5)-thioether] (YIQNC[N(4-F-Bzl)Gly]LG-NH2; linker N-5 via X1), the accumulation [1, 6] was “no indications of relevant accumulation”, the pre-dose concentrations [1, 6] was “falling constantly below the LLOQ” and the Cmax ([1]; inhaled or intranasal, 50 ug, multiple i.n. doses every 3 hours, 50 μg, Dose No. 1, read-out: Cmax Geom. mean (% CV)) was 0.0275 ng/mL. For the same compound, the Cmax ([1]; inhaled or intranasal, 50 ug, multiple i.n. doses every 3 hours, 50 μg, Dose No. 1, read-out: Cmax Median) was 0.0307 ng/mL, the Tmax ([1]; inhaled or intranasal, 50 ug, multiple i.n. doses every 3 hours, 50 μg, Dose No. 1, read-out: tmax Mean (SD)) was 13.8 min and the Cmax ([1]; inhaled or intranasal, 50 ug, multiple i.n. doses every 3 hours, 50 μg, Dose No. 2, read-out: Cmax Median) was 0.0302 ng/mL. For the same compound, the Cmax ([1]; inhaled or intranasal, 50 ug, multiple i.n. doses every 3 hours, 50 μg, Dose No. 16, read-out: Cmax Median) was 0.0266 ng/mL, the Tmax ([1]; inhaled or intranasal, 50 ug, multiple i.n. doses every 3 hours, 50 μg, Dose No. 16, read-out: tmax Mean (SD)) was 20.4 min and the AUC(0-t) ([1]; inhaled or intranasal, 200 ug, multiple i.n. doses every 3 hours, 200 μg, Dose No. 1, read-out: AUCt Geom. mean (% CV)) was 0.0804 ng·h/mL. It also gave an AUC(0-t) ([1]; inhaled or intranasal, 200 ug, multiple i.n. doses every 3 hours, 200 μg, Dose No. 1, read-out: AUCt Median) of 0.0876 ng·h/mL, a Cmax ([1]; inhaled or intranasal, 200 ug, multiple i.n. doses every 3 hours, 200 μg, Dose No. 1, read-out: Cmax Geom. mean (% CV)) of 0.124 ng/mL and a Cmax ([1]; inhaled or intranasal, 200 ug, multiple i.n. doses every 3 hours, 200 μg, Dose No. 1, read-out: Cmax Median) of 0.125 ng/mL. For the same compound, the Tmax ([1]; inhaled or intranasal, 200 ug, multiple i.n. doses every 3 hours, 200 μg, Dose No. 1, read-out: tmax Mean (SD)) was 10.8 min, the AUC(0-t) ([1]; inhaled or intranasal, 200 ug, multiple i.n. doses every 3 hours, 200 μg, Dose No. 2, read-out: AUCt Geom. mean (% CV)) was 0.0752 ng·h/mL and the AUC(0-t) ([1]; inhaled or intranasal, 200 ug, multiple i.n. doses every 3 hours, 200 μg, Dose No. 2, read-out: AUCt Median) was 0.0706 ng·h/mL. It also gave a Cmax ([1]; inhaled or intranasal, 200 ug, multiple i.n. doses every 3 hours, 200 μg, Dose No. 2, read-out: Cmax Geom. mean (% CV)) of 0.115 ng/mL, a Cmax ([1]; inhaled or intranasal, 200 ug, multiple i.n. doses every 3 hours, 200 μg, Dose No. 2, read-out: Cmax Median) of 0.118 ng/mL and a half-life ([1]; inhaled or intranasal, 200 ug, multiple i.n. doses every 3 hours, 200 μg, Dose No. 2, read-out: t1/2 Harmonic mean (converted)) of 26.4 min. For the same compound, the Tmax ([1]; inhaled or intranasal, 200 ug, multiple i.n. doses every 3 hours, 200 μg, Dose No. 2, read-out: tmax Mean (SD)) was 16.8 min, the AUC(0-t) ([1]; inhaled or intranasal, 200 ug, multiple i.n. doses every 3 hours, 200 μg, Dose No. 16, read-out: AUCt Geom. mean (% CV)) was 0.16 ng·h/mL and the AUC(0-t) ([1]; inhaled or intranasal, 200 ug, multiple i.n. doses every 3 hours, 200 μg, Dose No. 16, read-out: AUCt Median) was 0.147 ng·h/mL. For the same compound, the Cmax ([1]; inhaled or intranasal, 200 ug, multiple i.n. doses every 3 hours, 200 μg, Dose No. 16, read-out: Cmax Geom. mean (% CV)) was 0.218 ng/mL, the Cmax ([1]; inhaled or intranasal, 200 ug, multiple i.n. doses every 3 hours, 200 μg, Dose No. 16, read-out: Cmax Median) was 0.225 ng/mL and the half-life ([1]; inhaled or intranasal, 200 ug, multiple i.n. doses every 3 hours, 200 μg, Dose No. 16, read-out: t1/2 Harmonic mean (converted)) was 30.6 min. For the same compound, the Tmax ([1]; inhaled or intranasal, 200 ug, multiple i.n. doses every 3 hours, 200 μg, Dose No. 16, read-out: tmax Mean (SD)) was 18.6 min, the AUC(0-t) ([1]; inhaled or intranasal, 400 ug, multiple i.n. doses every 3 hours, 400 μg, Dose No. 1, read-out: AUCt Geom. mean (% CV)) was 0.0771 ng·h/mL and the AUC(0-t) ([1]; inhaled or intranasal, 400 ug, multiple i.n. doses every 3 hours, 400 μg, Dose No. 1, read-out: AUCt Median) was 0.0702 ng·h/mL. It also gave a Cmax ([1]; inhaled or intranasal, 400 ug, multiple i.n. doses every 3 hours, 400 μg, Dose No. 1, read-out: Cmax Geom. mean (% CV)) of 0.156 ng/mL, a Cmax ([1]; inhaled or intranasal, 400 ug, multiple i.n. doses every 3 hours, 400 μg, Dose No. 1, read-out: Cmax Median) of 0.136 ng/mL and a half-life ([1]; inhaled or intranasal, 400 ug, multiple i.n. doses every 3 hours, 400 μg, Dose No. 1, read-out: t1/2 Harmonic mean (converted)) of 21 min. For the same compound, the AUC(0-t) ([1]; inhaled or intranasal, 400 ug, multiple i.n. doses every 3 hours, 400 μg, Dose No. 2, read-out: AUCt Geom. mean (% CV)) was 0.0888 ng·h/mL, the AUC(0-t) ([1]; inhaled or intranasal, 400 ug, multiple i.n. doses every 3 hours, 400 μg, Dose No. 2, read-out: AUCt Median) was 0.142 ng·h/mL and the Cmax ([1]; inhaled or intranasal, 400 ug, multiple i.n. doses every 3 hours, 400 μg, Dose No. 2, read-out: Cmax Geom. mean (% CV)) was 0.169 ng/mL. It also gave a Cmax ([1]; inhaled or intranasal, 400 ug, multiple i.n. doses every 3 hours, 400 μg, Dose No. 2, read-out: Cmax Median) of 0.195 ng/mL, a half-life ([1]; inhaled or intranasal, 400 ug, multiple i.n. doses every 3 hours, 400 μg, Dose No. 2, read-out: t1/2 Harmonic mean (converted)) of 23.4 min and a Tmax ([1]; inhaled or intranasal, 400 ug, multiple i.n. doses every 3 hours, 400 μg, Dose No. 2, read-out: tmax Mean (SD)) of 9.6 min. It also gave a Cmax ([1]; inhaled or intranasal, 400 ug, multiple i.n. doses every 3 hours, 400 μg, Dose No. 16, read-out: Cmax Geom. mean (% CV)) of 0.18 ng/mL, a Cmax ([1]; inhaled or intranasal, 400 ug, multiple i.n. doses every 3 hours, 400 μg, Dose No. 16, read-out: Cmax Median) of 0.192 ng/mL and a half-life ([1]; inhaled or intranasal, 400 ug, multiple i.n. doses every 3 hours, 400 μg, Dose No. 16, read-out: t1/2 Median (converted)) of 39 min. The Tmax ([1]; inhaled or intranasal, 400 ug, multiple i.n. doses every 3 hours, 400 μg, Dose No. 16, read-out: tmax Mean (SD)) was 18 min, the Tmax ([1]; other: intranasal, 50 ug, multiple i.n. doses every 3 hours, 50 μg, Dose No. 2, read-out: tmax Mean (SD)) was 20.4 min and the Cmax ([1]; other: intranasal, 50 ug, multiple i.n. doses every 3 hours, 50 μg, Dose No. 16, read-out: Cmax Geom. mean (% CV)) was 0.0236 ng/mL. For the same compound, the Tmax ([1]; other: intranasal, 400 ug, multiple i.n. doses every 3 hours, 400 μg, Dose No. 1, read-out: tmax Mean (SD)) was 6.6 min, the AUC(0-t) ([1]; other: intranasal, 400 ug, multiple i.n. doses every 3 hours, 400 μg, Dose No. 16, read-out: AUCt Geom. mean (% CV)) was 0.112 ng·h/mL and the AUC(0-t) ([1]; other: intranasal, 400 ug, multiple i.n. doses every 3 hours, 400 μg, Dose No. 16, read-out: AUCt Median) was 0.112 ng·h/mL. It also gave a half-life ([1]; other: intranasal, 400 ug, multiple i.n. doses every 3 hours, 400 μg, Dose No. 16, read-out: t1/2 Harmonic mean (converted)) of 33.6 min, a half-life ([1]; other: intranasal, multiple i.n. doses, all dose groups, read-out: t1/2) of 25 to 35 min and a Tmax ([1]; other: intranasal, multiple i.n. doses, all dose groups, read-out: tmax) of 12 to 15 min. For the same compound, the “Any AE: number of AEs, E” value [2] was 16, the “Any AE: subjects with AE, n (%)” value [2] was 8 (44) and the “Back pain: number of AEs, E” value [2] was 1. For the same compound, the “Back pain: subjects with AE, n (%)” value [2] was 1 (6), the “Breast engorgement: number of AEs, E” value [2] was 3 and the “Breast engorgement: subjects with AE, n (%)” value [2] was 3 (17). For the same compound, the “Headache: number of AEs, E” value [2] was 3, the “Headache: subjects with AE, n (%)” value [2] was 2 (11) and the “Lactation puerperal increased: number of AEs, E” value [2] was 1. The “Lactation puerperal increased: subjects with AE, n (%)” value [2] was 1 (6), the “Muscle spasms: number of AEs, E” value [2] was 1 and the “Muscle spasms: subjects with AE, n (%)” value [2] was 1 (6). For the same compound, the “Uterine spasm: number of AEs, E” value [2] was 7, the “Uterine spasm: subjects with AE, n (%)” value [2] was 6 (33) and the “safety (key results)” value [2] was “No safety”. The “severe or serious AE” value ([2]; iv) was “No severe or serious AE occurred”, the “metabolites of merotocin in plasma or urine samples” value [3] was “No metabolites of merotocin could be detected” and the “Dry mouth: subjects reporting” value [4] was 3 subjects. For the same compound, the “intensity of all adverse events” value [4] was “mild”, the “safety (key results)” value [4] was “No safety” and the “withdrawal due to nausea” value ([5]; 400 μg group, multiple doses) was “One subject was withdrawn”. For the same compound, the “dry mouth: subjects reporting” value ([5]; 200 and 400 μg groups, multiple doses) was 5 subjects, the “intensity of all TEAEs” value ([5]; after multiple dose administrations) was “mild” and the “headache: subjects reporting” value ([5]; all treatment groups, multiple doses) was 4 subjects.

From patent US20220313774A1, “INTRANASAL ADMINISTRATION OF MEROTOCIN FOR IMPROVING LACTATION” (FERRING B.V., priority 2019, published 2022)
